Test results as given in patent publication US20240033269A1, “PPARAXANTHINE-BASED COMPOSITIONS FOR INHIBITING INFLAMMATION, IMPROVING JOINT HEALTH, AND ENHANCING IMMUNE FUNCTION” (PX ING, LLC, priority 2022, published 2024).

Columns and labels:
Type in all cases: in vivo, Swiss Albino mice
IL-6 = experiment: Serum IL-6 by ELISA after 28 days oral treatment with treadmill exercise training
Procedure: (§1) Sixteen 8-week-old male Swiss Albino mice were housed in an animal room at a constant temperature (22±3° C.) and humidity (30-70%) under a 12:12 h light-dark cycle with standard laboratory diet (Purina 5L79, Rat and Mouse 18% protein; PMI Nutrition International, Brentwood, MO, USA). Distilled water was provided ad libitum. All animal experiments were reviewed and approved by the Institutional Animal Ethical Committee (IAEC) of Radiant Research Services Pvt. Ltd. (Bangalore, India). All research was conducted in accordance with the guidelines of the committee for the purpose of control and supervision of experiments on animals.
(§2) After one week of acclimation, the animals were randomly divided by body weight into two groups (n=8 per group in each test) for oral treatment once a day, at approximately the same time each day (±1 h), for 28 consecutive days: (1) vehicle control; (2) paraxanthine. The dose administered to the mice was calculated using US Food and Drug Administration for human equivalence doses (HED), assuming a human weight of 60 kg. The following HED were used in this study: 100 mg paraxanthine, (ENFINITY™, Ingenious Ingredients, L.P Lewisville, TX, USA; mouse dose: 20.5 mg/kg bw/day).
(§3) During the treatment period, exercise training was completed using a motorized treadmill (Exer 3/6, Columbus Instruments international, Columbus, OH, USA) at a moderate intensity of 20 cm/sec as maximal running speed, an incline of 10 degrees and a shock intensity of 0.2 mA, for 10 min. The speed of the treadmill was manually adjusted by increasing the belt speed by 5 cm/sec every 2 min throughout the total duration of 10 min. All animals were adapted to this procedure daily 60 min after dosing for 5 days in a week during the treatment period.
(§4) On 29th day, blood was collected from retro-orbital route for biochemical analysis. IL-2, IL-6, IL-10, assay was done by using standard ELISA assay kit method. The Tfh,/iTreg assay was done by using flow cytometry method.

IL-2 = experiment: Serum IL-2 by ELISA after 28 days oral treatment with treadmill exercise training
Procedure: as §1, §2, §3, §4

Tfh = Tfh cells by flow cytometry after 28 days oral treatment
Procedure: as §1
as §2, with “bw/day). […]” for “bw/day).”

Th1 = Th1 cells by flow cytometry after 28 days oral treatment
Procedure: as §1
as §2, with “bw/day). […]” for “bw/day).”

iTreg = iTreg cells by flow cytometry after 28 days oral treatment
Procedure: as §1
as §2, with “bw/day). […]” for “bw/day).”

Th2 = Th2 cells by flow cytometry after 28 days oral treatment
Procedure: as §1
as §2, with “bw/day). […]” for “bw/day).”

Th17 = Th17 cells by flow cytometry after 28 days oral treatment
Procedure: as §1
as §2, with “bw/day). […]” for “bw/day).”

IL-10 = experiment: Serum IL-10 by ELISA after 28 days oral treatment with treadmill exercise training
Procedure: as §1, §2, §3, §4

C-reactive protein (CRP) = experiment: Blood C-reactive protein after 28 days oral treatment with treadmill exercise training
Procedure: as §1, §2, §3, §4

[1] = mice, 28 days oral, versus control

Compound: Cn1c(=O)[nH]c2ncn(C)c2c1=O [Paraxanthine, 1,7-dimethyl-3H-purine-2,6-dione]
- Delta IL-6 (IL-6; change versus control, day 29): −7.7%
- effect on pro-inflammatory cytokine IL-6 (in words) (IL-6; [1]): reduced
- IL-6 (pg/ml) Pro-inflammatory (IL-6; mice, oral once daily 28 days (paraxanthine 20.5 mg/kg bw/day), blood on day 29, control 369.04 ± 13): 340.6 ± 13.6 pg/mL
- Delta IL-2 (IL-2; change versus control, day 29): +23.1%
- effect on IL-2 (in words) (IL-2; [1]): increased
- IL-2 (ng/L) Adaptive Immunity (IL-2; mice, oral once daily 28 days (paraxanthine 20.5 mg/kg bw/day), blood on day 29, control 37.29 ± 1.88): 45.91 ± 2.68 ng/L
- Delta Tfh (Tfh; change versus control, day 29): +602.8%
- Tfh (%) (Tfh; mice, oral 20.5 mg/kg bw/day 28 days, blood on day 29, control 7.82 ± 1.04): 54.96 ± 4.44 %
- Delta Th1 (Th1; change versus control, day 29): −29.8%
- Th1 (%) (Th1; mice, oral 20.5 mg/kg bw/day 28 days, blood on day 29, control 93.54 ± 2.82): 65.68 ± 3.98 %
- Delta iTreg (iTreg; change versus control, day 29): −56.5%
- iTreg (%) (iTreg; mice, oral 20.5 mg/kg bw/day 28 days, blood on day 29, control 54.47 ± 4.2): 23.68 ± 2.62 %
- Delta Th2 (Th2; change versus control, day 29): +368.0%
- Th2 (%) (Th2; mice, oral 20.5 mg/kg bw/day 28 days, blood on day 29, control 11.46 ± 3.16): 53.63 ± 3.85 %
- Delta Th17 (Th17; change versus control, day 29): +758.4%
- Th17 (%) (Th17; mice, oral 20.5 mg/kg bw/day 28 days, blood on day 29, control 3.65 ± 0.85): 31.33 ± 1.31 %
- Delta IL-10 (IL-10; change versus control, day 29): +8.3%
- effect on anti-inflammatory cytokine IL-10 (in words) (IL-10; [1]): increased
- IL-10 (pg/ml) Anti-inflammatory (IL-10; mice, oral once daily 28 days (paraxanthine 20.5 mg/kg bw/day), blood on day 29, control 527.86 ± 9.22): 571.71 ± 16.43 pg/mL
- Delta CRP (C-reactive protein (CRP); change versus control, day 29): −18.3%
- effect on C-reactive protein (CRP) (in words) (C-reactive protein (CRP); [1]): reduced
- CRP (mg/L) Inflammation (C-reactive protein (CRP); mice, oral once daily 28 days (paraxanthine 20.5 mg/kg bw/day), blood on day 29, control 0.77 ± 0.09): 0.64 ± 0.07 mg/L
